According to PubChem BioAssay (NCI):
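Exposure lasted 48 hours, with cells grown in 96-well plates and compounds tested at five concentrations. GI50: concentration for 50% inhibition of growth. At the TGI there is no net growth.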

Assays:
Assay in all cases: growth of human tumour cells (NCI), 48 h
BT-549 breast = test system: BT-549 breast
NCI-H23 lung = test system: NCI-H23 lung
OVCAR-8 ovarian = test system: OVCAR-8 ovarian
PC-3 prostate = test system: PC-3 prostate
SF-268 CNS = test system: SF-268 CNS
SK-MEL-28 melanoma = test system: SK-MEL-28 melanoma
UACC-62 melanoma = test system: UACC-62 melanoma
UO-31 renal = test system: UO-31 renal
DLD-1 colon = test system: DLD-1 colon
LXFL 529 NSCLC = test system: LXFL 529 NSCLC

Row | Structure (SMILES) | GI50 (BT-549 breast) [µM] | TGI (BT-549 breast) [µM] | GI50 (NCI-H23 lung) [µM] | TGI (NCI-H23 lung) [µM] | GI50 (OVCAR-8 ovarian) [µM] | TGI (OVCAR-8 ovarian) [µM] | GI50 (PC-3 prostate) [µM] | TGI (PC-3 prostate) [µM] | GI50 (SF-268 CNS) [µM] | TGI (SF-268 CNS) [µM] | GI50 (SK-MEL-28 melanoma) [µM] | TGI (SK-MEL-28 melanoma) [µM] | GI50 (UACC-62 melanoma) [µM] | TGI (UACC-62 melanoma) [µM] | GI50 (UO-31 renal) [µM] | TGI (UO-31 renal) [µM] | TGI (DLD-1 colon) [µM] | TGI (LXFL 529 NSCLC) [µM]
1 | C=C1CC[C@@H]2[C@](C)(COC(C)=O)[C@H](OC(C)=O)CC[C@@]2(C)[C@@H]1CC(Nc1ccc(S(=O)(=O)Nc2cc(C)on2)cc1)C1=CCOC1=O (stereo partly specified) | 1.79 | 3.47 | 2.31 | 5.9 | 1.88 | 4.3 | 1.98 | 4.31 | 2.35 | 6.11 | 2.02 | 4.31 | 2.13 | 7.06 | 1.69 | 3.52 | – | –
2 | CC(C)=CCC1=C(OCC(=O)O)C(=O)c2ccccc2C1=O | – | > 100 | – | > 100 | – | > 100 | – | > 100 | – | 65 | – | > 100 | – | 37.7 | – | > 100 | – | –
3 | COc1cc2oc(-c3ccc(O)cc3O)c(CC=C(C)C)c(=O)c2c(O)c1/C=C/C(C)C | – | 11.4 | – | 8.87 | – | 3.18 | – | 8.2 | – | 5.52 | – | 13.9 | – | 10.4 | – | 8.08 | – | –
4 | COc1ccc2c(c1)[n+]([O-])c(-c1ccc(Br)cc1)c(N)[n+]2[O-] | – | – | – | 55.3 | – | > 100 | – | – | – | > 100 | – | 71.5 | – | – | – | > 100 | > 100 | –
5 | NC(=S)N/N=C/c1ccc(N)cn1 | – | > 10 | – | > 8.9 | – | > 10 | – | > 10 | – | > 10 | – | > 10 | – | > 10 | – | 6.97 | – | –
6 | CCCCCc1cc[n+](CC(=O)c2ccc([N+](=O)[O-])cc2)cc1 | 4.15 | 20.5 | 2.89 | 11.9 | 5.85 | 39.6 | 4.14 | 34.7 | 19.4 | > 100 | 28.9 | > 100 | 10.8 | 24.1 | 4.61 | 43.6 | – | –
7 | C=C1CCC2C3(C)COC(c4c(OC)cccc4OC)OC3CCC2(C)C1C/C=C1/C(=O)OCC1O (stereo unspecified) | 2.25 | 5.64 | 3.98 | 15 | 3.09 | 11.5 | 2.66 | 11.7 | 3.7 | 12.4 | 1.93 | 4.05 | 3.32 | 15 | 2.01 | 4.33 | – | –
8 | COC(=O)C1=Cc2cc(OC)c(OC)cc2[C@H](c2ccc(OC)c(OC)c2)C1C(=O)OC (stereo partly specified) | – | – | – | > 100 | – | > 100 | – | – | – | > 100 | – | > 100 | – | > 100 | – | > 100 | – | > 100
9 | CC(=O)c1ccc(Nc2nc(Nc3ccc(F)cc3)nc(Nc3ccc(F)cc3)n2)cc1 | 10.1 | 31.5 | 35.7 | > 100 | 6.91 | 24.8 | 8.89 | > 100 | 10.8 | 46.6 | 11 | 45 | 28.9 | > 100 | 7.68 | 24.3 | – | –
10 | CNc1cc2nc3cc(NC)c(C)cc3cc2cc1C | 3.48 | 14.3 | 0.624 | 3.11 | 0.754 | 9.83 | 1.07 | 15.7 | 0.687 | 10.9 | 5.91 | 20.5 | 8.82 | 34.5 | 0.365 | 13.3 | – | –
11 | O=C1C=CC(=Nc2ccccc2)c2ccccc21 | – | 28 | – | 13.1 | – | 24.6 | – | 22.6 | – | 24.8 | – | 42 | – | 12.9 | – | 23.3 | – | –
12 | O=C1C(Nc2ccc(Br)cc2)=C(I)C(=O)c2ncccc21 | 1.85 | 5.9 | 0.829 | 2.14 | 0.809 | 1.69 | 0.888 | 6.44 | 1.13 | 4.94 | 1.82 | 6.1 | 1.16 | 2.96 | 0.641 | 1.85 | – | –
13 | C[N+](C)(CCCCCC[N+](C)(C)CCCN1C(=O)c2cc3ccccc3cc2C1=O)CCCN1C(=O)c2cc3ccccc3cc2C1=O | > 37.5 | > 37.5 | > 37.5 | > 37.5 | > 37.5 | > 37.5 | > 37.5 | > 37.5 | > 37.5 | > 37.5 | > 37.5 | > 37.5 | > 37.5 | > 37.5 | > 37.5 | > 37.5 | – | –
14 | CCCC[n+]1c(/C=C\c2c(OC)cc(OC)cc2OC)ccc2ccccc21 | 0.738 | 3.19 | 0.779 | 8.17 | 0.613 | 7.69 | 0.737 | 5.71 | 2.03 | 10.3 | 0.601 | 2.75 | 0.777 | 2.34 | 2.22 | 8.26 | – | –
15 | COC(=O)c1ccc2c(c1)C(=O)c1c-2n(C)c(=O)c2cc(OC)c(OC)cc12 | > 50 | > 50 | > 50 | > 50 | > 50 | > 50 | > 50 | > 50 | > 50 | > 50 | > 50 | > 50 | > 50 | > 50 | > 50 | > 50 | – | –
16 | CC[C@@H](C(=O)[C@H](C)[C@H](O)[C@@H](C)[C@H]1O[C@H]([C@@H](CC)C(=O)O)CC[C@H]1C)C1O[C@]2(C=C[C@@H](O)[C@]3(CC[C@@](C)([C@H]4CC[C@](O)(CC)[C@H](C)O4)O3)O2)[C@H](C)C[C@@H]1C (stereo partly specified) | 0.239 | 8.63 | 0.296 | 7.24 | 1.6 | > 100 | 0.0692 | 49 | 1.14 | 16.2 | 0.84 | 2.09 | 1.05 | 2.28 | 1.42 | 23.9 | – | –
17 | O=[N+]([O-])c1ccc(Sc2nc(Cl)nc(NC3CCCC3)n2)cc1 | > 10 | > 10 | > 10 | > 10 | > 10 | > 10 | > 10 | > 10 | > 10 | > 10 | 7 | > 10 | > 10 | > 10 | 3.08 | > 10 | – | –
